These results are taken from patent US20100022559A1, “BISOXIMES AS FUNGICIDES” (BAYER CROPSCIENCE AG, priority 2006, published 2010).

A short description of one data set: logP determination by HPLC on a reversed-phase column (C 18), EEC Directive 79/831 Annex V.A8. Format: physicochemical. The following applies: method marked [a] in Table 1. On the procedure: The stated logP values were determined in accordance with EEC Directive 79/831 Annex V.A8 by HPLC (high performance liquid chromatography) on a reversed-phase column (C 18). Temperature: 43° C.
With `Cc1cccc(C(=NOCC2(CON=C(c3cccc(C)n3)C3CC3)CC(c3ccccc3Cl)=NO2)C2CC2)n1` (stereo not shown) [compound 648], the logP is 4.46^[a].
Still for that read-out and setting: then `Cc1cccc(C(=NOCC2(CON=C(c3cccc(C)n3)C3CC3)CC(c3ccc(Cl)cc3)=NO2)C2CC2)n1` (stereo not shown) [compound 649], with 4.53^[a]; and `Cc1cccc(C(=NOCC2(CON=C(c3cccc(C)n3)C3CC3)CC(c3ccccc3)=NO2)C2CC2)n1` (stereo not shown) [compound 650], with 3.80^[a].
Same read-out and setting: for `CCC1=NOC(CON=C(c2cccc(C)n2)C2CC2)(CON=C(c2cccc(C)n2)C2CC2)C1` (stereo not shown) [compound 652] the value was 2.95^[a]; for `Cc1cccc(C(=NOCC2(CON=C(c3cccc(C)n3)C3CC3)CC(CC(C)C)=NO2)C2CC2)n1` (stereo not shown) [compound 653], 3.99^[a]; for `CCC(=NOCC1(CON=C(CC)c2cccc(C)n2)CC(c2ccccc2Cl)=NO1)c1cccc(C)n1` (stereo not shown) [compound 654], 5.69^[a].
Still for that read-out and setting: then `Cc1cccc(C(=NOCC2(CON=C(c3cccc(C)n3)C3CC3)CC(c3cccc(Cl)c3)=NO2)C2CC2)n1` (stereo not shown) [compound 655], with 4.54^[a]; and `Cc1cccnc1C(=NOCCCON=C(c1ccccc1)c1ncccc1C)c1ccccc1` [compound 657], with 4.17^[a].
`Cc1cccnc1C(=NOCC(C)CON=C(c1ccccc1)c1ncccc1C)c1ccccc1` (stereo not shown) [compound 658]: the logP was 4.54^[a].
As to `CC(=NOC/C=C/CON=C(C)c1ccc(C)c(C)n1)c1ccc(C)c(C)n1` [compound 684], the logP was 2.67^[a].
Still for that read-out and setting: then `CCc1cc(-c2ccccc2)cc(C(C)=NOCC(C)CON=C(C)c2cc(-c3ccccc3)cc(CC)n2)n1` (stereo not shown) [compound 692], with 7.36^[a].

The same data set, now with this note: method marked [b] in Table 1.
In the case of `CC(C)=CC1=NOC(CON=C(C)c2cc(C)cc(C)n2)(CON=C(C)c2cc(C)cc(C)n2)C1` (stereo not shown) [compound 647], the logP is 2.48^[b].
Still for that read-out and setting: for `C=C(CON=Cc1cccc(C)n1)CON=C(C)c1cccc(C)n1` [compound 663] the value was 2.54^[b].
Same read-out and setting: then `C(=NOCCON=Cc1ccccn1)c1ccccn1` [compound 665], with 1.68^[b]; and `C(=NOCCCON=Cc1ccccn1)c1ccccn1` [compound 666], with 1.97^[b]; and `C=C(CON=Cc1cccc(C)n1)CON=Cc1cccc(C)n1` [compound 667], with 2.16^[b].
With `Cc1cccc(C=NOCC(C)CON=Cc2cccc(C)n2)n1` (stereo not shown) [compound 668], the logP was 2.28^[b].
On the same count and under the same terms, for `Cc1cccc(C(=NOCC(C)CON=C(c2cccc(C)n2)c2cccs2)c2cccs2)n1` (stereo not shown) [compound 673] the value was 4.49^[b]; for `CC(=NOC(=O)N(C)C(=O)ON=C(C)c1ccc(C)c(C)n1)c1ccc(C)c(C)n1` [compound 674], 2.79^[b].
The same measure, in the same setting: for `CCC(CC)(C(=O)ON=C(C)c1ccc(C)c(C)n1)C(=O)ON=C(C)c1ccc(C)c(C)n1` [compound 675] the value was 5.06^[b]; for `CC(=NOC(=O)N(C)C(=O)ON=C(C)c1cc(C)cc(C)n1)c1cc(C)cc(C)n1` [compound 676], 2.21^[b].
Still for that read-out and setting: for `C=Cc1cccc(C(C)=NOCC(C)CON=C(C)c2cccc(C=C)n2)n1` (stereo not shown) [compound 685] the value was 6.6^[b]; for `CC(=NOCC(C)CON=C(C)c1ccc2cccc(C)c2n1)c1ccc2cccc(C)c2n1` (stereo not shown) [compound 687], 7.36^[b]; for `Cc1cccc(C(N)=NOCC(C)CON=C(N)c2cccc(C)n2)n1` (stereo not shown) [compound 689], 2.71^[b].
For `C=C(CON=C(Cl)c1cccc(C)n1)CON=C(Cl)c1cccc(C)n1` [compound 696], the logP is 4.01^[b].
Same read-out and setting: then `Cc1cc(C)nc(/C(N)=N/OCc2ccccc2CO/N=C(\N)c2nc(C)cc(C)n2)n1` [compound 700], with 2.23^[b].
The same measure, in the same setting: for `Cc1cc(C)nc(/C(N)=N/OCc2cccc(CO/N=C(\N)c3nc(C)cc(C)n3)c2)n1` [compound 701] the value was 2.13^[b]; for `Cc1cc(C)nc(/C(N)=N/OCc2ccc(CO/N=C(\N)c3nc(C)cc(C)n3)cc2)n1` [compound 702], 2.11^[b].
The same measure, in the same setting: then `CC(=NOCc1ccccc1CON=C(C)c1cccc(C)n1)c1cccc(C)n1` [compound 703], with 4.26^[b]; and `CC(=NOCc1cccc(CON=C(C)c2cccc(C)n2)c1)c1cccc(C)n1` [compound 704], with 4.17^[b]; and `CC(=NOCc1ccc(CON=C(C)c2cccc(C)n2)cc1)c1cccc(C)n1` [compound 705], with 4.27^[b].
With `Cc1nc(/C(N)=N/OCc2ccccc2CO/N=C(\N)c2nc(C)c3c(n2)CCCC3)nc2c1CCCC2` [compound 707], the logP is 3.25^[b].
The same measure, in the same setting: then `COCc1nc(/C(N)=N/OCc2ccccc2CO/N=C(\N)c2nc(COC)c(C)c(COC)n2)nc(COC)c1C` [compound 708], with 2.16^[b]; and `Cc1nc(/C(N)=N/OCc2ccccc2CO/N=C(\N)c2nc(C)c(Cl)c(C)n2)nc(C)c1Cl` [compound 709], with 3.41^[b].
Turning to `Cc1cc(C)cc(/C(N)=N/OCc2ccccc2CO/N=C(\N)c2cc(C)cc(C)c2)c1` [compound 710], the logP was 3.68^[b].
As to `N/C(=N\OCc1ccccc1CO/N=C(\N)c1nc(C2CC2)cc(C2CC2)n1)c1nc(C2CC2)cc(C2CC2)n1` [compound 711], the logP was 3.85^[b].
Still for that read-out and setting: then `Cc1nc(/C(N)=N/OCc2cccc(CO/N=C(\N)c3nc(C)c4c(n3)CCCC4)c2)nc2c1CCCC2` [compound 712], with 3.09^[b].
Same read-out and setting: for `COCc1nc(/C(N)=N/OCc2cccc(CO/N=C(\N)c3nc(COC)c(C)c(COC)n3)c2)nc(COC)c1C` [compound 713] the value was 2.06^[b].
Take `N/C(=N\OCc1cccc(CO/N=C(\N)c2ncc(F)cc2F)c1)c1ncc(F)cc1F` [compound 714]: the logP was 2.96^[b].
Same read-out and setting: then `Cc1nc(/C(N)=N/OCc2cccc(CO/N=C(\N)c3nc(C)c(Cl)c(C)n3)c2)nc(C)c1Cl` [compound 715], with 3.29^[b].
Regarding `N/C(=N\OCc1cccc(CO/N=C(\N)c2nc(C3CC3)cc(C3CC3)n2)c1)c1nc(C2CC2)cc(C2CC2)n1` [compound 716], the logP is 3.76^[b].
Regarding `Cc1nc(/C(N)=N/OCc2ccc(CO/N=C(\N)c3nc(C)c4c(n3)CCCC4)cc2)nc2c1CCCC2` [compound 717], the logP was 3.09^[b].
Same read-out and setting: then `N/C(=N\OCc1ccc(CO/N=C(\N)c2ncc(F)cc2F)cc1)c1ncc(F)cc1F` [compound 719], with 2.96^[b].
On to `N/C(=N\OCc1ccc(CO/N=C(\N)c2nc(C3CC3)cc(C3CC3)n2)cc1)c1nc(C2CC2)cc(C2CC2)n1` [compound 720], for which the logP was 3.76^[b].
The same measure, in the same setting: then `Cc1nc(/C(N)=N/OC/C=C/CO/N=C(\N)c2nc(C)c3c(n2)CCCC3)nc2c1CCCC2` [compound 721], with 2.51^[b]; and `N/C(=N\OC/C=C/CO/N=C(\N)c1nc(C2CC2)cc(C2CC2)n1)c1nc(C2CC2)cc(C2CC2)n1` [compound 722], with 3.13^[b]; and `N/C(=N\OC/C=C/CO/N=C(\N)c1ncc(F)cc1F)c1ncc(F)cc1F` [compound 723], with 2.42^[b].
On the same count and under the same terms, then `Cc1cc(C)nc(/C(N)=N/OCc2ccccc2CO/N=C(\N)c2cc(C)cc(C)n2)c1` [compound 724], with 3.72^[b]; and `Cc1cc(C)nc(/C(N)=N/OCc2cccc(CO/N=C(\N)c3cc(C)cc(C)n3)c2)c1` [compound 726], with 3.63^[b]; and `CC(=NOc1ncnc(ON=C(C)c2cccc(C)n2)c1F)c1cccc(C)n1` [compound 727], with 3.13^[b].
Same read-out and setting: then `CC(=NOc1ncnc(ON=C(C)c2cccc(C)n2)c1C)c1cccc(C)n1` [compound 728], with 2.34^[b]; and `CC(=NOc1ncnc(ON=C(C)c2cccc(C)n2)c1Cl)c1cccc(C)n1` [compound 729], with 3.31^[b].
Take `CC(=NOCc1ccccc1CON=C(C)c1nc(C)c(C)s1)c1nc(C)c(C)s1` [compound 730]: the logP is 5.71^[b].
Take `CC(=NOCc1cccc(CON=C(C)c2ccccn2)c1)c1ccccn1` [compound 731]: the logP was 3.72^[b].
On the same count and under the same terms, then `CC(=NOCc1cccc(CON=C(C)c2nc(C)c(C)s2)c1)c1nc(C)c(C)s1` [compound 732], with 5.71^[b].
Same read-out and setting: then `Cc1cc(C)nc(/C(N)=N/OCc2ccc(CO/N=C(\N)c3cc(C)cc(C)n3)cc2)c1` [compound 733], with 3,59^[b]; and `CC(=NOCc1ccc(CON=C(C)c2ccccn2)cc1)c1ccccn1` [compound 734], with 3.76^[b].
Turning to `Cc1cccc(C=NOCc2ccc(CON=Cc3cccc(C)n3)cc2)n1` [compound 735], the logP was 2.80^[b].
With `CC(=NOCc1ccc(CON=C(C)c2nc(C)c(C)s2)cc1)c1nc(C)c(C)s1` [compound 736], the logP is 5.84^[b].
Still for that read-out and setting: then `Cc1cccc(C=NOCC=CCON=Cc2cccc(C)n2)n1` [compound 737], with 2.18^[b].
For the compound `CCC(=NOc1ncnc(ON=C(C)c2cccc(C)n2)c1C)c1ncccc1C` [compound 739], the logP was 2.18^[b].
Same read-out and setting: for `CC(=NOCc1cccc(CON=C(C)c2ccc(C)c(C)n2)n1)c1ccc(C)c(C)n1` [compound 741] the value was 2.30^[b].
The same measure, in the same setting: for `CC(=NOC(=O)N(C)C(=O)ON=C(C)c1cccc(C)n1)c1cccc(C)n1` [compound 744] the value was 2.57^[b]; for `CCC(CC)(C(=O)ON=C(C)c1cccc(C)n1)C(=O)ON=C(C)c1cccc(C)n1` [compound 745], 4.49^[b]; for `C=C(CON=C(Br)c1cccc(C)n1)CON=C(Br)c1cccc(C)n1` [compound 746], 4.41^[b].
On the same count and under the same terms, then `CC(=NOCCC(C)CCON=C(C)c1ccccn1)c1ccccn1` (stereo not shown) [compound 747], with 4.43^[b].

Still in this data set, the particulars now being: method marked [c] in Table 1.
With `CC(=NOCC(C)CON=C(C)c1ccc2cccc(C)c2n1)c1ccc2cccc(C)c2n1` (stereo not shown) [compound 687], the logP was 7.36^[c].
For `CC(=NOc1ncnc(ON=C(C)c2cccc(C)n2)c1C)c1cccc(C)n1` [compound 728], the logP is 3.45^[c].
Same read-out and setting: for `CC(=NOCc1cccc(CON=C(C)c2ccc(C)c(C)n2)n1)c1ccc(C)c(C)n1` [compound 741] the value was 5.08^[c]; for `CC(=NOCc1cccc(CON=C(C)c2cc(C)cc(C)n2)n1)c1cc(C)cc(C)n1` [compound 742], 4.96^[c].
